Two compounds from patent US6916802B2, “Amino ceramide-like compounds and therapeutic methods of use” (Genzyme Corporation, priority 2002, dated 2005) can be followed below.

The structures appear in SMILES notation. Several values for one entry are separate records, joined by “and”; a condition that tells them apart may be missing. Identical values can stand only once. Marks after values point to notes of the source that are not given here.

Test [1] deals with GlcCer synthase of MDCK cell homogenates. The experiment in a line: Inhibition of ceramide glucosyltransferase (GlcCer synthase) of MDCK cell homogenates. The class given is biochemical, canine. Conditions: for Inhibition at 5 μM: 5 μM inhibitor, triplicate ± SD, samples partly isomer mixtures. The gist of the method:
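MDCK cell sonicate (~0.2 mg protein) incubated with octanoyl sphingosine (85 μg, in dioleoylphosphatidylcholine/sulfatide liposomes) and UDP-[^3H]glucose in a thermostatted ultrasonic bath. Aromatic inhibitors were dried into the tube; aliphatic inhibitors were incorporated in the substrate liposomes.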

In another test the test system is MDCK cells. The experiment in a line: MDCK cell growth (cellular protein per dish). The class given is cell-based, canine. The conditions noted are these: duplicate dishes. On the procedure:
For the experiments with labeled thymidine, each 8.5 cm dish contained 500,000 Madin-Darby canine kidney (MDCK) cells in 8 ml of Dulbecco modified essential supplemented medium. […] The control cells were also incubated in the presence of BSA. The cells were washed with phosphate/saline and trichloroacetic acid, then scraped off the dishes, dissolved in alkali, and analyzed for protein and DNA incorporated tritium. [Methyl-^3H]thymidine (10 μCi) was added 4 h prior to harvesting.

A further test deals with neutral ceramidase. The test is described as follows: Neutral ceramidase of MDCK cell homogenate. The class given is biochemical, canine. On the procedure: (§1) Acid and neutral ceramidases were assayed under conditions like those above, but the medium contained 110 μM [1-^14C]decanoyl sphingosine (10^5 cpm) in 340 μM dioleoylphosphatidylcholine liposomes and 0.34 mg of MDCK cellular protein homogenate. […] After 60 min in the ultrasonic bath, 3 ml of C-M 2:1, carrier decanoic acid, and 0.6 ml of 0.9% saline were added and the lipids in the lower layer were separated by TLC with C-HOAc 9:1. The liberated decanoic acid was scraped off the glass plate and counted.

Test [2] relates to H-460 lung large cell carcinoma cells. The experiment in a line: Tumor cell growth in vitro (sulforhodamine B), H-460. Conditions: rounded off to one digit, read-out: Inhibition of tumor cell growth in vitro, IC50. Type of test: cell-based, human. On the procedure:
(§2) Growth of cell lines. Comparisons of different inhibitors with regard to suppression of human cancer cell growth were made by the University of Michigan Cancer Center in vitro Drug Evaluation Core Laboratory. MCF-7 breast carcinoma cells, HT-29 colon adenocarcinoma cells, H-460 lung large cell carcinoma cells, and 9L brain gliosarcoma cells were grown in RPMI 1640 medium with 5% fetal bovine serum, 2 mM glutamine, 50 units/ml of penicillin, […] of streptomycin, and 0.1 mg/ml of neomycin. UMSCC-10A head and neck squamous carcinoma cells were grown in minimal essential medium with Earle salts and the same supplements. Medium components were from Sigma Chemical Co. Cells were plated in 96-well microtiter plates (1000 cells/well for H-460 and 9L cells, and 2000 cells/well for the other lines), and the test compounds were added 1 day later. The stock inhibitor solutions, 2 mM in 2 mM BSA, were diluted with different amounts of additional 2 mM BSA, then each solution was diluted 500-fold with growth medium to obtain the final concentrations indicated in the Figures and Tables.
(§3) Five days after plating the H-460 and 9L cells, or 6 days for the other lines, cell growth was evaluated by staining the adhering cells with sulforhodamine B and measuring the absorbance at 520 nm (Skehan, P. et al., “New Colorimetric Cytotoxicity Assay for Anticancer-Drug Screening,” J. Natl. Cancer Inst., 82:1107-1112 (1990)). The absorbance of the treated cultures is reported as percent of that of control cultures, to provide an estimate of the fraction of the cells that survived, or of inhibition of growth rate.

The next test relates to Ceramide synthase. The experiment in a line: Ceramide synthase of MDCK homogenate. Type of test: biochemical, canine. The method, then:
Ceramide synthase was assayed with 1 μM [3-^3H]sphingosine (70,000 cpm, repurified by column chromatography), 0.2 mM stearoyl-CoA, 0.5 mM dithiothreitol, and ˜300 μg of MDCK homogenate protein in 25 mM phosphate-K^+ buffer, pH 7.4, in a total volume of 0.2 ml. The incubation (for 30 min) and TLC were carried out as above and the ceramide band was counted.

The test system of test [3] is 9L brain gliosarcoma cells. The experiment in a line: Tumor cell growth in vitro (sulforhodamine B), 9L. The class given is cell-based. Conditions: for growth, % of control growth: 9L cells; for IC50: 9L, rounded off to one digit, read-out: Inhibition of tumor cell growth in vitro, IC50. A digest of the protocol:
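Cells in RPMI 1640 + 5% FBS, plated 1000/well (H-460, 9L) or 2000/well (MCF-7); compounds added day 1 from 2 mM BSA stocks diluted 500-fold in medium. Growth read by sulforhodamine B staining, A520, at day 5 (H-460, 9L) or day 6 (MCF-7), as percent of control.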

For test [4], the system named is HT-29 colon adenocarcinoma cells. The experiment in a line: Tumor cell growth in vitro (sulforhodamine B), HT-29. The conditions noted are these: rounded off to one digit, read-out: Inhibition of tumor cell growth in vitro, IC50. Type of test: cell-based, human. On the procedure: as §2, §3
For a further test, the system named is acid ceramidase. The experiment in a line: Acid ceramidase of MDCK cell homogenate. Type of test: biochemical, canine. The method, then:
as §1

The test system of test [5] is MCF-7 breast carcinoma cells. The experiment in a line: Tumor cell growth in vitro (sulforhodamine B), MCF-7. Type of test: cell-based, human. Conditions: rounded off to one digit, read-out: Inhibition of tumor cell growth in vitro, IC50. The method, then:
as §2, §3

Consider `CCCCCCCCCCCCCCCC(=O)NC(CN1CCCC1)C(O)c1ccccc1` (racemic) [BML-130], for which, in [1], the Inhibition (commonly the change of the read-out against control, counted positive when it falls) at 5 μM was determined as 79%. Moreover, in test [1] (6 μM, inhibitor incorporated into the substrate liposomes), the “degree of inhibition of GlcCer synthase” value is listed as 89±0.6%. Besides, the Protein with MDCK cells (0.4 μM in growth medium) is 544 μg/dish and 538 μg/dish; in the test on MDCK cells (4 μM in growth medium), 160 μg/dish and 268 μg/dish. Besides, the “Ceramidase pH 7.4, enzyme activity (% of control)” value with neutral ceramidase (5 μM) and in the test with neutral ceramidase (50 μM) was 100 ± 15 % of control in each case. The IC50 – broadly, the concentration needed to halve the response being measured – in test [2] was found to be 3 µM; in test [3], 2 µM; in [4], 2 µM; in test [5], 2 µM. Moreover, the entries for the “Ceramide Synthase, enzyme activity (% of control)” value with Ceramide synthase (5 μM) and in the test with Ceramide synthase (50 μM) were 108 ± 10 % of control and 106 ± 29 % of control, respectively. Besides, the “growth, % of control growth” value is 93% in [3] (2 μM inhibitor) and 5% in [3] (3 μM inhibitor). The “Ceramidase pH 4.5, enzyme activity (% of control)” value is listed as 107 ± 11 % of control in the test on acid ceramidase (5 μM) and 160 ± 21^a % of control in the test with acid ceramidase (50 μM).
On to `CCCCCCCCCCCCCCCC(=O)NC(CN1CCCC1)C(O)c1ccccc1` (racemic) [BML-129], for which, in test [1], the “Inhibition at 5 μM” value is reported as 15%. The Protein was 538 μg/dish and 500 μg/dish in the test on MDCK cells (0.4 μM in growth medium); 396 μg/dish and 311 μg/dish with MDCK cells (4 μM in growth medium). For the same compound, the “Ceramidase pH 7.4, enzyme activity (% of control)” value is recorded as 100 ± 0 % of control in the test on neutral ceramidase (5 μM) and 99 ± 2 % of control in the test on neutral ceramidase (50 μM). In addition, the IC50 in [2] was 2 µM; in test [3] it was 2 µM; in [4], 2 µM; in test [5], 3 µM. The results for the “Ceramide Synthase, enzyme activity (% of control)” value in the test with Ceramide synthase (5 μM) and in the test with Ceramide synthase (50 μM) were 97 ± 0 % of control and 102 ± 1 % of control, respectively. The “Ceramidase pH 4.5, enzyme activity (% of control)” value in the test with acid ceramidase (5 μM) was 108 ± 8 % of control; with acid ceramidase (50 μM), 171 ± 26^a % of control.
